Data set [1] concerns the target T1, BCR-ABL1 Y253F (Homo sapiens, UniProt P00519, Y253F).
T1 construct: BCR (fusion partner, as the printed name BCR-ABL1 says)
Nature of the data set: KinaseProfiler radiometric kinase assay, BCR-ABL1 Y253F. The class given is biochemical. The conditions noted are these: [ATP] = 10 μM; mean of n = 2.

Data set [2] can be described thus: Caco-2 permeability. Conditions: human. Here is the method: Caco-2 Permeability (Independently Performed by Pharmaron Inc., Ningbo, CN)
To each well of the Transwell insert and reservoir were added 50 μL and 25 mL of cell culture medium, respectively. […] Following this, the Caco-2 plate was removed from the incubator and the monolayer washed twice with pre-warmed HBSS (10 mM HEPES, pH 7.4).
To determine the rate of drug transport in the apical to basolateral direction, 125 μL of the working solution of either test compounds or control compounds was added to the Transwell insert (apical compartment) and a 50 μL sample was immediately transported from the apical compartment to 200 μL of acetonitrile containing internal standard (100 nM alprazolam, 200 nM Caffeine and 100 nM tolbutamide) in a new 96-well plate as the initial donor sample (A-B). The sample was then vortexed at 1,000 rpm for 10 min. The receiver plate (basolateral compartment) wells were then filled with 235 μL of transport buffer. To determine the rate of drug transport in the basolateral to apical direction, 285 μL of the working solution of either test compounds or control compounds was added to the receiver plate wells (basolateral compartment) and a 50 μL sample was immediately transferred from the basolateral compartment to 200 μL of acetonitrile containing internal standard in a new 96-well plate as the initial donor sample (B-A). The sample was vortexed at 1,000 rpm for 10 min. The Transwell insert (apical compartment) was then filled with 75 μL of transport buffer and the apical to basolateral direction and the basolateral to apical direction were done at the same time. […] After incubation, 50 μL samples from donor sides (apical compartment for Ap→BI flux, and basolateral compartment for BI→Ap) and receiver sides (basolateral compartment for Ap→BI flux, and apical compartment for BI→Ap) were transferred to wells of a new 96-well plate, followed by the addition of 200 μL acetonitrile containing internal standard. All samples were vortexed for 10 min and then centrifuged at 3,220 g for 40 min. A 150 μL aliquot of the supernatant was then mixed with an appropriate volume of ultra-pure water prior to LC-MS/MS analysis.
To monitor for monolayer integrity, Lucifer yellow leakage was determined after the 2 h transport period. This began by preparing a stock solution of Lucifer yellow in DMSO which was diluted with HBSS (10 mM HEPES, pH 7.4.) to reach a final concentration of 100 μM. To each Transwell insert (apical compartment) was then added 100 μL of the Lucifer yellow solution, followed by filling the wells in the receiver plate (basolateral compartment) with 300 μL of HBSS (10 mM HEPES, pH 7.4).
(§1) The efflux ratio was determined using the following equation: […]
For orientation: Caco-2 cells form a polarised layer with tight junctions and transporters.

Data set [3] can be described thus: MDCKII-MDR1 permeability. The conditions noted are these: dog, MDCK-MDR1, pH 7.4. Here is the method:
MDCKII-MDR1 Permeability (Independently Performed By: Pharmaron Inc., Ninqbo, CN)
To each well of the Transwell insert and reservoir were added 50 μL and 25 mL of cell culture medium, respectively.
To determine the rate of drug transport in the apical to basolateral direction, 125 μL of the working solution of either test compounds or control compounds was added to the Transwell insert (apical compartment) and a 50 μL sample was immediately transferred from the apical compartment to 200 μL of acetonitrile containing internal standard (100 nM alprazolam, 200 nM caffeine, and 100 nM tolbutamide) in a new 96-well plate as the initial donor sample (A-B). The sample was then vortexed at 1,000 rpm for 10 min. The receiver plate (basolateral compartment) wells were then filled with 235 μL transport buffer. To determine the rate of drug transport in the basolateral to apical direction, 285 μL of the working solution of either test compounds or control compounds was added to the receiver plate (basolateral compartment) wells and a 50 μL of sample was immediately transferred from the basolateral compartment to 200 μL of acetonitrile containing internal standard in a new 96-well plate as the initial donor sample (B-A). The sample was vortexed for 10 min at 1,000 rpm. The Transwell insert (apical compartment) was then filled with 75 μL of transport buffer and the apical to basolateral direction and the basolateral to apical direction were done at the same time. […] After incubation, 50 μL samples from donor sides (apical compartment for Ap→BI flux, and basolateral compartment BI→Ap) and receiver sides (basolateral compartment for Ap→BI flux, and apical compartment for BI→Ap) were transferred to wells of a new 96-well plate, followed by the addition of 200 μL acetonitrile containing internal standard. […] An aliquot of 100 μL of the supernatant was mixed with an appropriate volume of ultra-pure water before LC-MS/MS analysis.
To monitor for monolayer integrity, Lucifer yellow leakage was determined after the 2 h transport period. This began by preparing a stock solution of Lucifer yellow in DMSO and diluted with HBSS (10 mM HEPES, pH 7.4.) to reach a final concentration of 100 μM. To each Transwell insert (apical compartment) was then added 100 μL of the Lucifer yellow solution, followed by filling the wells in the receiver plate (basolateral compartment) with 300 μL of HBSS (10 mM HEPES, pH 7.4).
as §1

pIC50: −log10 of the molar value.

The term pIC50 denotes the IC50 on a negative log10 scale, so that one unit is a factor of ten. As a reminder, the Papp A→B is how fast a substance crosses the layer from the apical side. A high value points to fast passage. What is called Papp B→A is how fast a substance crosses the layer from the basolateral side. Usually efflux ratio stands for a quotient of directional permeabilities that is used to spot active efflux.

Compound `COc1cc(Nc2c(C#N)cnc3cc(OCCON4CCN(C)CC4)c(OC)cc23)c(F)cc1Cl` [Compound 15, 4-((4-chloro-2-fluoro-5-methoxyphenyl)amino)-6-methoxy-7-(2-((4-methylpiperazin-1-yl)oxy)ethoxy)quinoline-3-carbonitrile] had a pIC50 in data set [1] of 9.00. The Papp A→B at 2 h, 5 µM in data set [2] is 1.9 ×10⁻⁶ cm/s. In addition, in data set [3], the Papp A→B at 2 h, 1 µM is 0.7 ×10⁻⁶ cm/s; the Papp B→A at 2 h, 1 µM came out at 19.3 ×10⁻⁶ cm/s; the efflux ratio at 1 µM came out at 26.5.

The values above are taken from patent US20260297031A1, “HYDROXYLAMINE-BASED BCR-ABL1 INHIBITORS FOR TREATMENT OF CANCER” (University of Georgia Research Foundation, Inc., priority 2023, published 2026).
